Experimental data: patent publication US20250120961A1, “P53 MODULATORS” (Nested Therapeutics, Inc., priority 2023, published 2025)
Like-named read-outs stand apart in the source and are kept apart here.

Target: His-tagged p53-Y220C DNA binding domain (Homo sapiens, UniProt P04637, Y220C)
Assay: Biochemical p53-Y220C and DNA binding assay (HTRF)
Details: read-out: HTRF IP
How it was run: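 DBD (aa 94-312, 100 nM) mixed with compound and biotinylated consensus dsDNA (200 nM) in DPBS/20 mM NaCl/0.5% BSA, overnight at 4 °C, then 60 min at 27-29 °C; anti-His Tb/streptavidin-d2 HTRF read. Activation normalized to reference compound (500%) and DMSO (0%); 10-point curve, inflection point reported.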

[1] = inflection point of 10 points dose titration, 4 parameter curve fit, p53-Y220C DBD 100 nM, biotinylated dsDNA 200 nM, 27 to 29° C.

Structure (SMILES)	EC50 [1] [nM]	EC50 (bound printed in the heading for the reference compound) [nM]
CS(=O)(=O)NC1CCC(=Cc2sc3c(N[C@@H]4CCNC[C@@H]4F)cccc3c2CC(F)(F)F)CC1 (stereo partly drawn) [Example 4-1, N-(4-((7-(((3S,4R)-3-fluoropiperidin-4-yl)amino)-3-(2,2,2-trifluoroethyl)benzo[b]thiophen-2-yl)methylene)cyclohexyl)methanesulfonamide]	> 1000	
CC(=O)N1CCC(=Cc2sc3c(N[C@@H]4CCNC[C@@H]4F)cccc3c2CC(F)(F)F)CC1 [Example 4-2, 1-(4-((7-(((3S,4R)-3-fluoropiperidin-4-yl)amino)-3-(2,2,2-trifluoroethyl)benzo[b]thiophen-2-yl)methylene)piperidin-1-yl)ethan-1-one]	> 1000	
OC(/C=C/c1sc2c(N[C@@H]3CNC[C@@H]3F)cccc2c1CC(F)(F)F)c1ccccn1 (stereo partly drawn) [Example 5-1, (E)-3-(7-(((3R,4S)-4-fluoropyrrolidin-3-yl)amino)-3-(2,2,2-trifluoroethyl)benzo[b]thiophen-2-yl)-1-(pyridin-2-yl)prop-2-en-1-ol]	> 1000	
CN1CC[C@@H](Nc2cccc3c(CC(F)(F)F)c(/C=C/C(O)c4ccccn4)sc23)[C@@H](F)C1 (stereo partly drawn) [Example 5-2, (E)-3-(7-(((3S,4R)-3-fluoro-1-methylpiperidin-4-yl)amino)-3-(2,2,2-trifluoroethyl)benzo[b]thiophen-2-yl)-1-(pyridin-2-yl)prop-2-en-1-ol]	> 1000	
CN1CC[C@@H](Nc2cccc3c(CC(F)(F)F)c(/C=C/C(O)c4cnn(C)c4)sc23)[C@@H](F)C1 (some centres unmarked) [Example 5-5]	100 to 1000	
CN1CC[C@@H](Nc2cccc3c(CC(F)(F)F)c(/C=C/C(O)c4cnn5ccccc45)sc23)[C@@H](F)C1 (stereo partly drawn) [Example 5-6, (E)-3-(7-(((3S,4R)-3-fluoro-1-methylpiperidin-4-yl)amino)-3-(2,2,2-trifluoroethyl)benzo[b]thiophen-2-yl)-1-(pyrazolo[1,5-a]pyridin-3-yl)prop-2-en-1-ol]	100 to 1000	
CN1CC[C@@H](Nc2cccc3c(CC(F)(F)F)c(/C=C/C(O)c4cnn(CC5CC5)c4)sc23)[C@@H](F)C1 (stereo partly drawn) [Example 5-7, (E)-1-(1-(cyclopropylmethyl)-1H-pyrazol-4-yl)-3-(7-(((3S,4R)-3-fluoro-1-methylpiperidin-4-yl)amino)-3-(2,2,2-trifluoroethyl)benzo[b]thiophen-2-yl)prop-2-en-1-ol]	100 to 1000	
CN1CC[C@@H](Nc2cccc3c(CC(F)(F)F)c(/C=C/C(O)c4cn[nH]c4)sc23)[C@@H](F)C1 (stereo partly drawn) [Example 5-8, (E)-3-(7-(((3S,4R)-3-fluoro-1-methylpiperidin-4-yl)amino)-3-(2,2,2-trifluoroethyl)benzo[b]thiophen-2-yl)-1-(1H-pyrazol-4-yl)prop-2-en-1-ol]	100 to 1000	
CN1CC[C@@H](Nc2cccc3c(CC(F)(F)F)c(/C=C/C(O)c4ccncc4)sc23)[C@@H](F)C1 (stereo partly drawn) [Example 5-9, (E)-3-(7-(((3S,4R)-3-fluoro-1-methylpiperidin-4-yl)amino)-3-(2,2,2-trifluoroethyl)benzo[b]thiophen-2-yl)-1-(pyridin-4-yl)prop-2-en-1-ol]	100 to 1000	
O=c1cccc(C(O)/C=C/c2sc3c(N[C@@H]4CNC[C@@H]4F)cccc3c2CC(F)(F)F)[nH]1 (stereo partly drawn) [Example 5-10, 6-((E)-3-(7-(((3R,4S)-4-fluoropyrrolidin-3-yl)amino)-3-(2,2,2-trifluoroethyl)benzo[b]thiophen-2-yl)-1-hydroxyallyl)pyridin-2(1H)-one]	100 to 1000	
CN1CC[C@@H](Nc2cccc3c(CC(F)(F)F)c(/C=C/CNC(=O)C4CC4)sc23)[C@@H](F)C1 [Example 6-1, N-((E)-3-(7-(((3S,4R)-3-fluoro-1-methylpiperidin-4-yl)amino)-3-(2,2,2-trifluoroethyl)benzo[b]thiophen-2-yl)allyl)cyclopropanecarboxamide]	100 to 1000	
CN1CC[C@@H](Nc2cccc3c(CC(F)(F)F)c(/C=C/CNC(=O)c4cnn(C)c4)sc23)[C@@H](F)C1 [Example 6-2, N-((E)-3-(7-(((3S,4R)-3-fluoro-1-methylpiperidin-4-yl)amino)-3-(2,2,2-trifluoroethyl)benzo[b]thiophen-2-yl)allyl)-1-methyl-1H-pyrazole-4-carboxamide]	100 to 1000	
CN1CC[C@@H](Nc2cccc3c(CC(F)(F)F)c(/C=C/CNS(C)(=O)=O)sc23)[C@@H](F)C1 [Example 6-3, N-((E)-3-(7-(((3S,4R)-3-fluoro-1-methylpiperidin-4-yl)amino)-3-(2,2,2-trifluoroethyl)benzo[b]thiophen-2-yl)allyl)methanesulfonamide]	100 to 1000	
COC(=O)NC/C=C/c1sc2c(N[C@@H]3CCN(C)C[C@@H]3F)cccc2c1CC(F)(F)F [Example 6-4, methyl ((E)-3-(7-(((3S,4R)-3-fluoro-1-methylpiperidin-4 yl)amino)-3-(2,2,2-trifluoroethyl)benzo[b]thiophen-2-yl)allyl)carbamate]	100 to 1000	
CN1CC[C@@H](Nc2cccc3c(CC(F)(F)F)c(/C=C/CNc4cccnc4)sc23)[C@@H](F)C1 [Example 7-1, N-((E)-3-(7-(((3S,4R)-3-fluoro-1-methylpiperidin-4-yl)amino)-3-(2,2,2-trifluoroethyl)benzo[b]thiophen-2-yl)allyl)pyridin-3-amine]	100 to 1000	

Now from value to compound:

EC50 [1] [nM]	EC50 (bound printed in the heading for the reference compound) [nM]	Structure (SMILES)
100 to 1000		Cc1nnc(CO/N=C/c2sc3c(N[C@@H]4CNC[C@@H]4F)cccc3c2CC(F)(F)F)o1 [Example 3-6, (E)-7-(((3R,4S)-4-fluoropyrrolidin-3-yl)amino)-3-(2,2,2-trifluoroethyl)benzo[b]thiophene-2-carbaldehyde O-((5-methyl-1,3,4-oxadiazol-2-yl)methyl) oxime]
100 to 1000		Cc1cc(CO/N=C/c2sc3c(N[C@@H]4CNC[C@@H]4F)cccc3c2CC(F)(F)F)no1 [Example 3-7, (E)-7-(((3R,4S)-4-fluoropyrrolidin-3-yl)amino)-3-(2,2,2-trifluoroethyl)benzo[b]thiophene-2-carbaldehyde O-((5-methylisoxazol-3-yl)methyl) oxime]
100 to 1000		O=C1CC(CO/N=C/c2sc3c(N[C@@H]4CNC[C@@H]4F)cccc3c2CC(F)(F)F)CN1 (stereo partly drawn) [Example 3-8, (E)-7-(((3R,4S)-4-fluoropyrrolidin-3-yl)amino)-3-(2,2,2-trifluoroethyl)benzo[b]thiophene-2-carbaldehyde O-((5-oxopyrrolidin-3-yl)methyl) oxime]
100 to 1000		OC(/C=C/c1sc2c(N[C@@H]3CNC[C@@H]3F)cccc2c1CC(F)(F)F)c1cc(Cl)n[nH]1 (stereo partly drawn) [Example 5-3, (E)-1-(3-chloro-1H-pyrazol-5-yl)-3-(7-(((3R,4S)-4-fluoropyrrolidin-3-yl)amino)-3-(2,2,2-trifluoroethyl)benzo[b]thiophen-2-yl)prop-2-en-1-ol]
100 to 1000		CN1CC[C@@H](Nc2cccc3c(CC(F)(F)F)c(/C=C/C(O)c4cccnc4)sc23)[C@@H](F)C1 (stereo partly drawn) [Example 5-4, (E)-3-(7-(((3S,4R)-3-fluoro-1-methylpiperidin-4-yl)amino)-3-(2,2,2-trifluoroethyl)benzo[b]thiophen-2-yl)-1-(pyridin-3-yl)prop-2-en-1-ol]
< 100		COc1cc(S(C)(=O)=O)ccc1NC/C=C/c1sc2c(N[C@@H]3CCN(C)C[C@@H]3F)cccc2c1CC(F)(F)F [Example 7-2, (3S,4R)-3-fluoro-N-(2-((E)-3-((2-methoxy-4-(methylsulfonyl)phenyl)amino)prop-1-en-1-yl)-3-(2,2,2-trifluoroethyl)benzo[b]thiophen-7-yl)-1-methylpiperidin-4-amine]
< 100	< 100	CN1CC[C@@H](Nc2cccc3c2cc(-c2noc(CNC(=O)c4cnn(C(C)(C)C)c4)n2)n3CC(F)(F)F)[C@@H](F)C1 [Reference Compound 1, reference compound]
